Several values for one entry are separate records, joined by “and”; a condition that tells them apart may be missing. Equal values may be shown once. Read-outs that look alike come from different tables or passages of the source.
Biological target: T1, PfCRT^Dd2_F145I (Plasmodium falciparum, UniProt Q8IBZ9, A220S/F145I/I356T/K76T/M74I/N326S/N75E/Q271E/R371I)
T1 construct: expressed in transfected cells; host or cells: Xenopus laevis oocytes injected with in vitro transcribed RNA (pSP64T)
T1 sequence (Q8IBZ9 1-424 M74I/N75E/K76T/F145I/A220S/Q271E/N326S/I356T/R371I): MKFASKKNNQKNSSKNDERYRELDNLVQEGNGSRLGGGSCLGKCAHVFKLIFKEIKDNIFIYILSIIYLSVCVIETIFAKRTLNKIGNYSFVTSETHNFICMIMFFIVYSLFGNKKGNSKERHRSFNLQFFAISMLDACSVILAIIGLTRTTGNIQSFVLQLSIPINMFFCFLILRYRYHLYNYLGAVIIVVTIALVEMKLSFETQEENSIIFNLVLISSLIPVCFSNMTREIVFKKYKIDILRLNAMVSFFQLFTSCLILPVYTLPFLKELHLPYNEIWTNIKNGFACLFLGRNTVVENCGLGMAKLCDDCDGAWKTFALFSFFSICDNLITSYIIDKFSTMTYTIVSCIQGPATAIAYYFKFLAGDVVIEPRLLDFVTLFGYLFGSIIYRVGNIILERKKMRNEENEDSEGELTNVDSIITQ
Assay: Competition kinetics of drug transport (radiolabeled substrate plus cold inhibitor), PfCRT^Dd2_F145I-expressing oocytes
Format: cell-based
Settings: for Vmax, maximal velocity of drug transport: global fit; for β, partiality factor: factor on transport of the labeled drug by the other drug
Procedure: To further characterize the kinetic relationship between CQ and PPQ, we performed a series of competition reactions. To this end, water-injected oocytes and PfCRT-expressing oocytes were incubated in medium containing one of seven concentrations of radio-labeled CQ and one of six concentrations of cold PPQ for 60 min before the amount of radio-labeled CQ uptake was determined. The rate of PfCRT-mediated CQ uptake was calculated for each condition by subtracting the corresponding value obtained for water-injected oocytes from those of PfCRT-expressing oocytes. The results were analyzed as a function of the CQ concentration (Fig 4A) and 16 different models of substrate competition were globally fit to the data by the least-squares method, using Python. The models were ranked, according to their Akaike information criterion difference (ΔAICC) and their Akaike weight (Fig 4B), with the most plausible model being the one with the lowest AICC (ΔAICC = 0) and the highest Akaike weight.
A complementary set of experiments was undertaken to investigate the kinetic mechanism by which PfCRT^Dd2_F145I accepts CQ and PPQ (Fig 6). […] These included a global fit of the substrate competition data to the 16 kinetic models (Fig 6), analysis of the secondary plots (Vmax,app and Vmax,app/KM,app as a function of the inhibitor concentration) (Fig 7A), a fractional velocity plot analysis (Fig 7B) and a comparison of the experimental data with the modelled data using the noncompetitive inhibition equation (Fig 7C to 7F). […] The fractional velocity plot illustrated the partial character of the noncompetitive inhibition mechanism by yielding a partiality factor β^CQ = 0.31 ± 0.04, by which PPQ reduces the transport velocity of CQ (Fig 7B). […] A 3D model of the kinetics between PfCRT^Dd2_F145I, CQ and PPQ, and analyses of the residuals as a function of substrate and inhibitor concentrations confirmed that the model was also an appropriate explanation for the mutant transporter (Fig 7C to 7F).
Drug transport assays were performed as previously described. Briefly, measurements of radiolabeled drug uptake were made over 1 h, unless otherwise specified. […] Where specified, one or more unlabeled drugs were also present at the indicated concentrations. The direction of drug transport in the assays is from the extracellular medium (pH 6) into the oocyte cytosol (pH 7.2), which corresponds to the efflux of CQ or PPQ from the acidic digestive vacuole (pH 5.2) into the parasite cytosol (pH 7.2). The uptake assays were terminated by removing the oocytes from the reaction medium and washing them three times with 2 mL of ice-cold ND96 buffer. Each oocyte was transferred to a separate scintillation vial and lysed by the addition of 200 μL of a 5% SDS solution. The radioactivity in the sample was measured using a liquid scintillation analyser Tri-Carb 4910 TR (PerkinElmer). Water-injected oocytes were analyzed in parallel as a negative control. The buffer from each condition was measured in duplicate in parallel to each experiment to transform counts per minute into pmol of drug. Drug uptake attributable to PfCRT was determined by subtracting the background uptake from water-injected oocytes from that of PfCRT-expressing oocytes. In all cases, at least three independent experiments were performed on oocytes from different frogs, and for each condition in an experiment, measurements were made from 10 oocytes per treatment.
The following equations were adopted from Segel (1993), and the reader is referred to that text for the assumptions made in the author’s approach in the derivation of each equation [31]. The concentration of substrate is denoted as [S1] and the concentration of the inhibiting substrate is denoted as [S2]. KS1 and KS2 are the dissociation constants for the respective substrate-protein complexes.
Analyses of the kinetic data were performed using SigmaPlot version 13.0 and Python. […]

CCN(CC)CCCC(C)Nc1ccnc2cc(Cl)ccc12 (centres unmarked) [CQ, chloroquine]
PfCRTDd2_F145I-mediated CQ transport (10 µM CQ, 50 µM PPQ): 0.59 pmol oocyte-1 h-1 and 0.39 pmol oocyte-1 h-1
PfCRTDd2_F145I-mediated CQ transport (10 µM CQ, 125 µM PPQ): 0.68 pmol oocyte-1 h-1 and 0.58 pmol oocyte-1 h-1 and 0.47 pmol oocyte-1 h-1
PfCRTDd2_F145I-mediated CQ transport (10 µM CQ, 200 µM PPQ): 0.27 pmol oocyte-1 h-1 and 0.32 pmol oocyte-1 h-1 and 0.33 pmol oocyte-1 h-1
PfCRTDd2_F145I-mediated CQ transport (10 µM CQ, 350 µM PPQ): 0.43 pmol oocyte-1 h-1 and 0.31 pmol oocyte-1 h-1 and 0.46 pmol oocyte-1 h-1
PfCRTDd2_F145I-mediated CQ transport (50 µM CQ, 0 µM PPQ): 3.80 pmol oocyte-1 h-1 and 4.28 pmol oocyte-1 h-1 and 2.84 pmol oocyte-1 h-1
PfCRTDd2_F145I-mediated CQ transport (50 µM CQ, 50 µM PPQ): 3.24 pmol oocyte-1 h-1 and 2.4 pmol oocyte-1 h-1 and 3.22 pmol oocyte-1 h-1
PfCRTDd2_F145I-mediated CQ transport (50 µM CQ, 125 µM PPQ): 3.47 pmol oocyte-1 h-1 and 2.37 pmol oocyte-1 h-1 and 2.11 pmol oocyte-1 h-1
PfCRTDd2_F145I-mediated CQ transport (50 µM CQ, 200 µM PPQ): 2.85 pmol oocyte-1 h-1 and 2.54 pmol oocyte-1 h-1 and 2.07 pmol oocyte-1 h-1
PfCRTDd2_F145I-mediated CQ transport (50 µM CQ, 350 µM PPQ): 1.72 pmol oocyte-1 h-1 and 1.78 pmol oocyte-1 h-1 and 2.56 pmol oocyte-1 h-1
PfCRTDd2_F145I-mediated CQ transport (50 µM CQ, 500 µM PPQ): 1.90 pmol oocyte-1 h-1 and 2.40 pmol oocyte-1 h-1
PfCRTDd2_F145I-mediated CQ transport (100 µM CQ, 0 µM PPQ): 5.25 pmol oocyte-1 h-1 and 7.33 pmol oocyte-1 h-1 and 8.14 pmol oocyte-1 h-1
PfCRTDd2_F145I-mediated CQ transport (100 µM CQ, 125 µM PPQ): 4.86 pmol oocyte-1 h-1 and 5.68 pmol oocyte-1 h-1 and 5.61 pmol oocyte-1 h-1
PfCRTDd2_F145I-mediated CQ transport (100 µM CQ, 200 µM PPQ): 4.12 pmol oocyte-1 h-1 and 4.69 pmol oocyte-1 h-1 and 4.23 pmol oocyte-1 h-1
PfCRTDd2_F145I-mediated CQ transport (100 µM CQ, 350 µM PPQ): 3.37 pmol oocyte-1 h-1 and 4.27 pmol oocyte-1 h-1 and 5.15 pmol oocyte-1 h-1
PfCRTDd2_F145I-mediated CQ transport (200 µM CQ, 0 µM PPQ): 12.53 pmol oocyte-1 h-1 and 12.79 pmol oocyte-1 h-1
PfCRTDd2_F145I-mediated CQ transport (200 µM CQ, 50 µM PPQ): 14.25 pmol oocyte-1 h-1 and 10 pmol oocyte-1 h-1 and 10.59 pmol oocyte-1 h-1
PfCRTDd2_F145I-mediated CQ transport (200 µM CQ, 125 µM PPQ): 10.11 pmol oocyte-1 h-1 and 9.30 pmol oocyte-1 h-1 and 9.95 pmol oocyte-1 h-1
PfCRTDd2_F145I-mediated CQ transport (200 µM CQ, 200 µM PPQ): 7.48 pmol oocyte-1 h-1 and 7.15 pmol oocyte-1 h-1 and 10.15 pmol oocyte-1 h-1
PfCRTDd2_F145I-mediated CQ transport (200 µM CQ, 350 µM PPQ): 6.25 pmol oocyte-1 h-1 and 7.4 pmol oocyte-1 h-1 and 8.42 pmol oocyte-1 h-1
PfCRTDd2_F145I-mediated CQ transport (200 µM CQ, 500 µM PPQ): 7.88 pmol oocyte-1 h-1 and 6.35 pmol oocyte-1 h-1
PfCRTDd2_F145I-mediated CQ transport (300 µM CQ, 0 µM PPQ): 13.73 pmol oocyte-1 h-1 and 19.15 pmol oocyte-1 h-1
PfCRTDd2_F145I-mediated CQ transport (300 µM CQ, 50 µM PPQ): 13.84 pmol oocyte-1 h-1 and 14.19 pmol oocyte-1 h-1 and 16.04 pmol oocyte-1 h-1
PfCRTDd2_F145I-mediated CQ transport (300 µM CQ, 125 µM PPQ): 11.05 pmol oocyte-1 h-1 and 9.73 pmol oocyte-1 h-1 and 15.82 pmol oocyte-1 h-1
PfCRTDd2_F145I-mediated CQ transport (300 µM CQ, 200 µM PPQ): 10.02 pmol oocyte-1 h-1 and 12.63 pmol oocyte-1 h-1 and 9.83 pmol oocyte-1 h-1
PfCRTDd2_F145I-mediated CQ transport (300 µM CQ, 350 µM PPQ): 9.31 pmol oocyte-1 h-1 and 9.21 pmol oocyte-1 h-1 and 10.66 pmol oocyte-1 h-1
PfCRTDd2_F145I-mediated CQ transport (300 µM CQ, 500 µM PPQ): 9.09 pmol oocyte-1 h-1 and 11.47 pmol oocyte-1 h-1
PfCRTDd2_F145I-mediated CQ transport (400 µM CQ, 0 µM PPQ): 14.23 pmol oocyte-1 h-1 and 18.19 pmol oocyte-1 h-1
PfCRTDd2_F145I-mediated CQ transport (400 µM CQ, 50 µM PPQ): 15.01 pmol oocyte-1 h-1 and 14.7 pmol oocyte-1 h-1 and 18.28 pmol oocyte-1 h-1
PfCRTDd2_F145I-mediated CQ transport (400 µM CQ, 125 µM PPQ): 14.33 pmol oocyte-1 h-1 and 12.62 pmol oocyte-1 h-1 and 13.88 pmol oocyte-1 h-1
PfCRTDd2_F145I-mediated CQ transport (400 µM CQ, 200 µM PPQ): 9.98 pmol oocyte-1 h-1 and 13.36 pmol oocyte-1 h-1 and 12.15 pmol oocyte-1 h-1
PfCRTDd2_F145I-mediated CQ transport (400 µM CQ, 350 µM PPQ): 7.72 pmol oocyte-1 h-1 and 13.35 pmol oocyte-1 h-1 and 10.83 pmol oocyte-1 h-1
PfCRTDd2_F145I-mediated CQ transport (500 µM CQ, 0 µM PPQ): 19.16 pmol oocyte-1 h-1 and 17.86 pmol oocyte-1 h-1
PfCRTDd2_F145I-mediated CQ transport (500 µM CQ, 50 µM PPQ): 16.43 pmol oocyte-1 h-1 and 15.64 pmol oocyte-1 h-1 and 17.36 pmol oocyte-1 h-1
PfCRTDd2_F145I-mediated CQ transport (500 µM CQ, 125 µM PPQ): 14.97 pmol oocyte-1 h-1 and 16.69 pmol oocyte-1 h-1 and 12.9 pmol oocyte-1 h-1
PfCRTDd2_F145I-mediated CQ transport (500 µM CQ, 200 µM PPQ): 12.08 pmol oocyte-1 h-1 and 15.16 pmol oocyte-1 h-1 and 13.13 pmol oocyte-1 h-1
PfCRTDd2_F145I-mediated CQ transport (500 µM CQ, 350 µM PPQ): 10.85 pmol oocyte-1 h-1 and 12.45 pmol oocyte-1 h-1 and 11.74 pmol oocyte-1 h-1
most plausible inhibition model (16 models, ΔAICC, Akaike weight, secondary plots): partial noncompetitive inhibition
Vmax, maximal velocity of drug transport (Mixed (Partial) model, drug as radiolabeled substrate): 34 ± 2 pmol oocyte^-1 h^-1
Kd (Mixed (Partial) model, drug as cold inhibitor, read-out: KS, dissociation constant for the PfCRT-substrate complex): 200 ± 90 µM
Kd (Mixed (Partial) model, drug as radiolabeled substrate, read-out: KS, dissociation constant for the PfCRT-substrate complex): 350 ± 50 µM
β, partiality factor (Mixed (Partial) model): 0.41 ± 0.08
α, KS interaction factor (Mixed (Partial) model, label = radiolabeled substrate, other drug cold inhibitor): 1.0 ± 0.3
Vmax, maximal velocity of drug transport (Noncompetitive (Partial) model, drug as radiolabeled substrate, other drug as cold inhibitor): 34 pmol oocyte^-1 h^-1 and 34 ± 2 pmol oocyte^-1 h^-1
Kd (Noncompetitive (Partial) model, drug as cold inhibitor, read-out: KS, dissociation constant for the PfCRT-substrate complex): 225 µM and 230 µM
Kd (Noncompetitive (Partial) model, drug as radiolabeled substrate, read-out: KS, dissociation constant for the PfCRT-substrate complex): 357 µM and 360 µM
β, partiality factor (Noncompetitive (Partial) model): 0.40 and 0.40 ± 0.04
KMapp ([3H]CQ + PPQ) ([PPQ] 0 µM): 355.22 µM
Vmaxapp ([3H]CQ + PPQ) ([PPQ] 0 µM): 32.70 pmol oocyte-1 h-1
Vmaxapp/KMapp ([3H]CQ + PPQ) ([PPQ] 0 µM): 0.0962 h⁻¹
KMapp ([3H]CQ + PPQ) ([PPQ] 50 µM): 351.46 µM
Vmaxapp ([3H]CQ + PPQ) ([PPQ] 50 µM): 27.98 pmol oocyte-1 h-1
Vmaxapp/KMapp ([3H]CQ + PPQ) ([PPQ] 50 µM): 0.0844 h⁻¹
KMapp ([3H]CQ + PPQ) ([PPQ] 125 µM): 355.14 µM
Vmaxapp ([3H]CQ + PPQ) ([PPQ] 125 µM): 25.60 pmol oocyte-1 h-1
Vmaxapp/KMapp ([3H]CQ + PPQ) ([PPQ] 125 µM): 0.0728 h⁻¹
KMapp ([3H]CQ + PPQ) ([PPQ] 200 µM): 365.31 µM
Vmaxapp ([3H]CQ + PPQ) ([PPQ] 200 µM): 21.83 pmol oocyte-1 h-1
Vmaxapp/KMapp ([3H]CQ + PPQ) ([PPQ] 200 µM): 0.0619 h⁻¹
KMapp ([3H]CQ + PPQ) ([PPQ] 350 µM): 375.85 µM
Vmaxapp ([3H]CQ + PPQ) ([PPQ] 350 µM): 19.75 pmol oocyte-1 h-1
Vmaxapp/KMapp ([3H]CQ + PPQ) ([PPQ] 350 µM): 0.0554 h⁻¹
KMapp ([3H]CQ + PPQ) ([PPQ] 500 µM): 353.13 µM
Vmaxapp ([3H]CQ + PPQ) ([PPQ] 500 µM): 17.90 pmol oocyte-1 h-1
Vmaxapp/KMapp ([3H]CQ + PPQ) ([PPQ] 500 µM): 0.0540 h⁻¹
β^CQ, partiality factor (fractional velocity plot, factor by which PPQ reduces the transport velocity of CQ): 0.31 ± 0.04
Kd (secondary plot, half-maximal inhibitory concentration of Vmax,app versus inhibitor concentration, read-out: αKS, dissociation constant between the drug and the PfCRT complex with the other drug): 210 ± 120 µM
Kd (secondary plot, half-maximal inhibitory concentration of Vmax,app/KM,app versus inhibitor concentration, read-out: KS, dissociation constant between the drug and PfCRT): 250 ± 150 µM
α (αKS divided by KS) (secondary plots, label = prebound drug): 1.0 ± 0.3

From paper PMC10281575, “PfCRT mutations conferring piperaquine resistance in falciparum malaria shape the kinetics of quinoline drug binding and transport” (PLOS Pathogens, 2023)
